For orientation: EC50 means the concentration at which the effect is half-maximal.

From PubChem BioAssay AID651689 (The Scripps Research Institute Molecular Screening Center, 2012) come the findings set out here.

The experiment concerns the target Mu-type opioid receptor (Homo sapiens) (UniProt P35372). The experiment can be described thus: OPRM1 activation in single-receptor cells, late-stage follow-up, counter-screen for OPRM1-OPRD1 heterodimer activator project, cell-based, luminescence, dose response (AID 651689). The following applies: OPRM1 cell line, luminescence activation counterscreen. Background: Counterscreens check selectivity or assay interference.

Activity calls are given as the source filed them. How the calls were made is not given here.

Mu-type opioid receptor (Homo sapiens), sequence (P35372 whole entry, looked up): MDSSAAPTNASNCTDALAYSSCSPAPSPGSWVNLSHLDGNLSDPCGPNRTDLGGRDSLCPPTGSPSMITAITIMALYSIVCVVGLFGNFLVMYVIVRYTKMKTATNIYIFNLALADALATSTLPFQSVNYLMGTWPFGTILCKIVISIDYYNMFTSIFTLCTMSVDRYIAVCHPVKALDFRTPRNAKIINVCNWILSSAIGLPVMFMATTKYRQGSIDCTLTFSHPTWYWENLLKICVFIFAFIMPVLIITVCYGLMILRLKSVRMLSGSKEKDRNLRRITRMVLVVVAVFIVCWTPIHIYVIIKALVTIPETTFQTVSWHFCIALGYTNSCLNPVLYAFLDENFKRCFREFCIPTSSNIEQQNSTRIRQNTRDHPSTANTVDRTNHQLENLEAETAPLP

Regarding `CCOC(=O)C1(Cc2ccccc2)CCN(Cc2cccn2-c2nccs2)CC1`, the EC50 is > 40 µM (inactive).

Turning to `CCOC(=O)C1(CCOc2ccccc2)CCN(Cc2cccn2-c2cccnc2)CC1`, the EC50 entry was “inactive”.

As for `CCOC(=O)C1(CCc2ccccc2)CCN(Cc2cc(C)cc(C)c2)CC1`, the EC50 is > 40 µM (inactive).

Take `CCOC(=O)C1(CCCc2ccccc2)CCN(Cc2cnn(C)c2)CC1`: the EC50 was > 40 µM (inactive).

For the molecule `CCOC(=O)C1(CCc2ccccc2)CCN(Cc2ccc(NC(C)=O)cc2)CC1`, the EC50 result was “inactive”.

As for `OCC1(CCc2ccccc2)CCN(Cc2cc(F)ccc2-n2cccn2)CC1`, the EC50 is > 40 µM (inactive).

Regarding `CCOC(=O)C1(Cc2ccccc2)CCN(Cc2cccn2-c2cccnc2)CC1`, the EC50 was > 40 µM (inactive).

Turning to `CCOC(=O)C1(CCOc2ccccc2)CCN(Cc2ccc(O)c(OC)c2)CC1`, the EC50 is > 40 µM (inactive).

For the molecule `CCOC(=O)C1(CCc2ccccc2)CCN(Cc2ccccc2C)CC1`, the EC50 result was “inactive”.

For the molecule `CCOC(=O)C1(CC2CCCCO2)CCN(Cc2c(C)cc(C)cc2-n2cccn2)CC1` (stereo unspecified), the EC50 is 7.4 µM.

Turning to `CCOC(=O)C1(CCc2ccccc2)CCN(Cc2ccc(OC(C)C)c(C#N)c2)CC1`, the EC50 is > 40 µM (inactive).
